{"source": "patent US11957668B2", "about": "“Kinase mutation-associated neurodegenerative disorders” (MEMORIAL SLOAN KETTERING CANCER CENTER, priority 2017, dated 2024)", "key": {"[1]": {"test_system": "Csf1r^MeriCreMer; BRAF^V600E; Rosa26^LSL-YFP mice", "method": "Mice. […] Genotyping was performed according to protocols described previously for Csf1r^iCre Csf1r^MeriCreMer, CD11^Cre and BRAF^LSL-V600E mice. Cre recombination in Csf1r^MeriCreMer; Rosa26^LSL-YFP; BRAF^LSL-V600E embryos was induced by single injection at E8.5 of 37.5 mg per kg (body weight) of 4-hydroxytamoxifen (OH-TAM, Sigma) into pregnant females. OH-TAM was supplemented with 18.75 mg per kg (body weight) progesterone (Sigma) to counteract the mixed oestrogen agonist effects of tamoxifen, which can result in fetal abortions. Embryonic development was estimated considering the day of vaginal plug formation as 0.5 dpc. […] BRAF^WT and BRAF^VE male and female littermates were assigned randomly into the control or treated group. Scoring of mice was performed blinded and at least weekly by assessing hindlimb reflexes and other behavioral phenotypes such as axial rolling. The investigators were not blinded to allocation during experiments and outcome assessment.\nFootprint analysis. Mice were given two trials to run down a runway before the experiment. Mouse forepaws and hindpaws were painted with red and blue ink, respectively. Mice were then allowed to run down a runway lined with white paper. At least four steps from the middle portion of each run were measured for (1) overlap between forepaw and hindpaw placement, (2) stride length, (3) front-base width (the distance between the right and left forelimb strides), and (4) hind-base width (the distance between the right and left hindlimb strides). Mean values were used for graphs and statistical analyses.\nAs a readout, hind limb clasping reflexes were examined every week and footprint assays were performed as described above before treatment and every 4 weeks during treatment.\nTo determine the potential effects of BRAF^V600E macrophage clones in adult tissues, a large cohort (n=155) of BRAF^VE mice and littermate controls were analyzed."}, "[2]": {"test_system": "YFP+ microglia", "assay": "Protein-level expression of inflammatory and adhesion markers in YFP+ microglia and spinal cord (flow cytometry, immunostaining, Bioplex)", "type": "in vivo, mouse", "settings": "BRAF^VE mice, following PLX4720 treatment", "method": "Preparation of cell suspensions, flow cytometry and cell sorting. Pregnant females were killed by exposure to CO2. Embryos were removed from the uterus, washed in 4° C. phosphate-buffered saline (PBS, Invitrogen) and dissected under a Leica M80 microscope. For blood phenotyping of adult mice, mice were anaesthetized and blood was collected by cardiac puncture. Bone marrow was collected by flushing one leg with 5 ml RPMI (Invitrogen). For flow cytometry experiments, organs were incubated in PBS containing 1 mg/ml collagenase D (Roche), 100 U/ml DNase I (Sigma), 2.4 mg/ml of dispase (Invitrogen) and 3% FCS (Invitrogen) at 37° C. for 30 min prior to mechanical disruption. For embryonic tissue incubation time at 37° C. was reduced to 20 min. For cell sorting, tissues were digested for 30 min at RT in PBS containing 2 mg/ml of collagenase D (Roche), 200 U/ml DNase I (Sigma), 4.8 mg/ml of dispase (Invitrogen), 3% FCS (Invitrogen) and 1 uM of flavopiridol (Sigma) followed by mechanical disruption under a 100 um filter. Cell suspensions were centrifuged at 320 g for 7 min, resuspended in FACS buffer (PBS, 0.5% BSA and 2 mm EDTA) containing purified anti-CD16/32 (1:100 dilution) and 5% normal mouse, 5% normal rat and 5% normal rabbit serum and incubated for 15 min at 4° C. […] For FMO (fluorescence minus one), brain cell suspensions from BRAF^WT and BRAF^VE mice were mixed prior to staining. […]"}}, "data": [{"smiles": "CCCS(=O)(=O)Nc1ccc(F)c(C(=O)c2c[nH]c3ncc(Cl)cc23)c1F", "note": "[PLX4720]", "values": [{"measurement": "onset of neurologic disease (cumulative incidence of the ataxic phenotype)", "setting": "[1]; PLX4720-impregnated chow 417 mg/kg from 3 months of age, preliminary, small group", "result": "delays but does not totally prevent the onset of neurologic disease"}, {"measurement": "disease progression", "setting": "[1]; ad libitum PLX4720 diet started at one or three months of age", "result": "mitigated disease progression in both cases"}, {"measurement": "BRAF^VE mice alive", "setting": "[1]; by 9 months of age, PLX4720 diet", "result": 80, "unit": "%"}, {"measurement": "average clinical score", "setting": "[1]; by 9 months of age, PLX4720 diet, score scale 1-4", "result": 2}, {"measurement": "course of the neurological disease and mortality", "setting": "[1]; treatment of adult mice with BRAF^V600E mosaicism", "result": "slows the course of the neurological disease and reduces its mortality"}, {"measurement": "expression of Dectin-1 (Clec7a), LFA-1 (CD11a), VLA-4 (CD49d), the Pdgf receptor, Il1b, and Il17a at the protein level", "setting": "[2]", "result": "decrease"}]}]}
